This is an account of results in the NIST ThermoML archive (doi:10.1016/j.jct.2016.11.017).

± gives the expanded uncertainty stated by the source.

Data set [1] can be described thus: Molar enthalpy of transition or fusion. Particulars: Crystal; DSC.
For data set [2] the following is noted: Crystal; DTA.

For the compound `C[C@]12CC[C@@H]3c4ccc(O)cc4CC[C@H]3[C@@H]1C[C@@H](O)[C@@H]2O` [Estriol], the “Molar enthalpy of transition or fusion” value in data set [1] stood at 42.7 ± 1.2 kJ/mol. Besides, the Normal melting temperature in data set [2] came to 280.1 ± 0.4 °C.

For the compound `C[C@@H]1CC[C@@]2(OC1)O[C@H]1C[C@H]3[C@@H]4CC=C5C[C@@H](O)CC[C@]5(C)[C@H]4CC[C@]3(C)[C@H]1[C@@H]2C` [Diosgenin], in data set [1], the “Molar enthalpy of transition or fusion” value turned out to be 52.1 ± 1.4 kJ/mol. For the same compound, the Normal melting temperature in data set [2] is 201.2 ± 0.4 °C.
